≈ marks a conversion by molar mass, not a printed value. Where two headings read alike, the source gives them in different places. One block for each compound: values may come before it.
Legend:
[1] = biological target: T1, MAT2A enzyme (Homo sapiens, UniProt P31153); assay: MAT2A enzymatic assay (Biomol Green, OD620); assay type: biochemical
T1 construct: purchased BPS 71401
Procedure: • a) First, a 5× MAT2A assay buffer (250 mM Tris-HCl, pH 8.0; 250 mM KCl; 75 mM MgCl2; 0.025% BSA; 0.05% Brij35; 1.5 mM EDTA) was prepared and partially diluted to 1× for later use. • b) Preparation and addition of MAT2A enzyme (BPS, 71401): The MAT2A enzyme was diluted to 3.674 ng/µL (1.67×, final concentration: 2.20 ng/µL) with the 1× MAT2A assay buffer. Using a BioTek (MultiFlo FX) automated dispenser, the 1.67× MAT2A enzyme solution was added to the compound test wells and negative control wells of a plate at 15 µL/well, and meanwhile, the 1× MAT2A assay buffer was added to the blank control wells at 15 µL/well. • c) Preparation and addition of compounds: The test compound was diluted from a 10 mM stock solution to 100 µM with DMSO, and the positive control drug AGI-24512 was diluted under the same conditions. Using a Tecan compound dispenser (D300e), the dilutions were automatically dispensed into each well according to a preset concentration gradient. The dispensed volume was minimal and considered negligible. The concentration gradient started at 1 µM (1/2 log dilution), and a total of 8 gradient points were set. The plate was centrifuged at 2500 rpm for 30 s and incubated at 25 °C for 30 min. • d) Preparation of ATP: 10 mM ATP (Sigma, A7699) was diluted to 700 µM with the 1× MAT2A assay buffer for later use. • e) Preparation and addition of mixed solution of substrate and ATP: A mixed solution was prepared containing the 5× MAT2A assay buffer (3 µL/well), 750 µM L-methionine (Adamas, 01100469) (2.5 µL/well), 700 µM ATP (2.5 µL/well), and double distilled water (2 µL/well). The total amount of the required mixed solution was prepared according to the number of detection wells. Using a BioTek (MultiFlo FX) automated dispenser, the mixed solution was added at 10 µL/well. The resulting mixture was centrifuged at 2500 rpm for 30 s and allowed to react at 25 °C for 150 min. • f) Addition of Biomol Green detection reagent: Using a BioTek (MultiFlo FX) automated dispenser, Biomol Green (Enzo, BML-AK111) was added at 50 µL/well. The plate was centrifuged at 2500 rpm for 30 s and incubated at 25 °C for 20 min. • g) After the reaction was completed, the OD620 values were measured using a Perkin Elmer (Envision 2105) multimode microplate reader.
The inhibition rate was calculated using the following formula: Inhibition rate % = (ODmax −ODsample)/(ODmax −ODmin) × 100% [formula] where: • ODsample represents the OD620 value of the sample well; • ODmin represents the mean OD620 value of the blank control wells containing no enzyme and no test compound; • ODmax represents the mean OD620 value of the negative control wells containing enzyme but no compound. […]

[2] = Heating experiment via DSC followed by XRD; assay type: physicochemical; conditions: Heating temperature 110 °C
Excerpt: The heated samples were then collected and subjected to XRD analysis. Table 27: Summary of heating test results for various crystal forms

[3] = Room-temperature solubility in solvents; assay type: physicochemical; conditions: thermodynamic from solid, read-out: Solubility S
Procedure: Determination of the solubility of the crystal form G was conducted in 20 selected solvents at room temperature. A sample (about 2 mg) was weighed and added to a 3-mL vial, and the corresponding solvent listed in Table 29 below was added (100 µL each time) until the solid was dissolved. If the solid was still not completely dissolved after 2 mL of the solvent was added, further addition was stopped. The solubility range in the corresponding solvent was calculated according to the mass of the sample and the volume of the solvent. Table 29: Solubility ranges of crystal form G at room temperature

[4] = Dynamic solubility in buffers and water (HPLC, XRD of remaining solid); assay type: physicochemical; conditions: 37 °C; for solubility at 1 h / solubility at 4 h / solubility at 24 h: thermodynamic from solid, feed concentration 10 mg/mL
Procedure: 2.1. Hydrochloric acid solution at pH 1.0: A specified amount (9.00 mL) of hydrochloric acid was taken, diluted to 1000 mL with water, and shaken well to give the desired solution.
0.2 mol/L potassium dihydrogen phosphate solution: 27.22 g of potassium dihydrogen phosphate was taken, and dissolved and diluted to 1000 mL with water.
0.2 mol/L sodium hydroxide solution: 8.00 g of sodium hydroxide was taken, and dissolved and diluted to 1000 mL with water.
250 mL of a 0.2 mol/L potassium dihydrogen phosphate solution was taken and mixed with the specified amount of a 0.2 mol/L sodium hydroxide solution indicated in the table below. Then, the mixture was diluted to 1000 mL with water and shaken well to give the desired solution. Table 23: Phosphate buffer
Determination of the 1-, 4-, and 24-hour solubilities of the sample in four solvent systems (pH 1.0 buffer, pH 4.5 buffer, pH 6.8 buffer, and water) was conducted with a feed concentration of 10 mg/mL by shaking (400 rpm) at 37 °C. At each time point, a sample was taken, centrifuged (10000 rpm, 2 min), and filtered (through a 0.22 µm PTFE filter membrane, with the initial filtrate discarded). The HPLC concentration of the filtrate was then determined, and the remaining solid was subjected to XRD analysis. Table 30. Summary of dynamic solubility test results for crystal form G

T1 sequence (P31153 whole entry): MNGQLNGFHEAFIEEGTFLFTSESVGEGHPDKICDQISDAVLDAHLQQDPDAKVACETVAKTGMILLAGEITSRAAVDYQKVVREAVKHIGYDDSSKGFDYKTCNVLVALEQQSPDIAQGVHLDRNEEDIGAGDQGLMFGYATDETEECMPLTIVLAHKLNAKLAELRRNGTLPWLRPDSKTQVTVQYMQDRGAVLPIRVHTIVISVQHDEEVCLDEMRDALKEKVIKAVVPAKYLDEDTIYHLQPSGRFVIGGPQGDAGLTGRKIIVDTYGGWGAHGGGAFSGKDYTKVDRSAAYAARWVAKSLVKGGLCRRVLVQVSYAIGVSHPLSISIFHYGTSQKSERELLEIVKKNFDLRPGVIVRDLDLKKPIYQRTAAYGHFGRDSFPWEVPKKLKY

IC50 [1]: 26.8 nM
SMILES: Cc1[nH]c2c(N3CCCCC3)c(-c3ccccc3)nn2c(=O)c1-c1ccc(O)cc1 [AGI-24512, reference compound]

After heating (crystal form) [2]: Crystal form A
solubility ([3]; organic solvent or mixture, 1,4-Dioxane, room temperature): 4800 to 6300 µg/mL (≈ 10400 to 13700 µM)
solubility ([3]; organic solvent or mixture, ACN, room temperature): ~1100 µg/mL (≈ 2390 µM)
solubility ([3]; organic solvent or mixture, ACN/H2O (10:1), room temperature): < 1100 µg/mL
solubility ([3]; organic solvent or mixture, Acetone, room temperature): ~1000 µg/mL (≈ 2180 µM)
solubility ([3]; organic solvent or mixture, CHCl3, room temperature): > 10500 µg/mL
solubility ([3]; organic solvent or mixture, DCM, room temperature): 1900 to 2300 µg/mL (≈ 4140 to 5010 µM)
solubility ([3]; organic solvent or mixture, DMAc, room temperature): > 40000 µg/mL
solubility ([3]; organic solvent or mixture, DMF, room temperature): 21000 to 42000 µg/mL (≈ 45700 to 91400 µM)
solubility ([3]; organic solvent or mixture, DMSO, room temperature): 9500 to 19000 µg/mL (≈ 20700 to 41400 µM)
solubility ([3]; organic solvent or mixture, EtOAc, room temperature): 1100 to 2200 µg/mL (≈ 2390 to 4790 µM)
solubility ([3]; organic solvent or mixture, EtOH, room temperature): ~1200 µg/mL (≈ 2610 µM)
solubility ([3]; organic solvent or mixture, IPA, room temperature): ~1000 µg/mL (≈ 2180 µM)
solubility ([3]; organic solvent or mixture, IPAc, room temperature): ~1100 µg/mL (≈ 2390 µM)
solubility ([3]; organic solvent or mixture, MEK, room temperature): 5300 to 10500 µg/mL (≈ 11500 to 22900 µM)
solubility ([3]; organic solvent or mixture, MIBK, room temperature): 2000 to 2500 µg/mL (≈ 4350 to 5440 µM)
solubility ([3]; organic solvent or mixture, MTBE, room temperature): < 1100 µg/mL
solubility ([3]; organic solvent or mixture, MeOH, room temperature): 3710 to 5500 µg/mL (≈ 8070 to 12000 µM)
solubility ([3]; organic solvent or mixture, MeOH/DCM (1:1), room temperature): 5000 to 10000 µg/mL (≈ 10900 to 21800 µM)
solubility ([3]; organic solvent or mixture, THF, room temperature): 7000 to 10500 µg/mL (≈ 15200 to 22900 µM)
solubility ([3]; water, H2O, room temperature): < 1100 µg/mL
Crystal form change ([4]; H2O, 1 h): Yes
Crystal form change ([4]; H2O, 4 h): Yes
Crystal form change ([4]; H2O, 24 h): Yes
Crystal form change ([4]; pH 1.0, 1 h): Yes
Crystal form change ([4]; pH 1.0, 4 h): Yes
Crystal form change ([4]; pH 1.0, 24 h): Yes
solubility at 1 h ([4]; pH 1.0 buffer, simulated gastric fluid, pH 1.0, 1 h): 0.32 µg/mL (≈ 0.696 µM)
solubility at 4 h ([4]; pH 1.0 buffer, simulated gastric fluid, pH 1.0, 4 h): 0.16 µg/mL (≈ 0.348 µM)
solubility at 24 h ([4]; pH 1.0 buffer, simulated gastric fluid, pH 1.0, 24 h): 0.12 µg/mL (≈ 0.261 µM)
Crystal form change ([4]; pH 4.5, 1 h): Yes
Crystal form change ([4]; pH 4.5, 4 h): Yes
Crystal form change ([4]; pH 4.5, 24 h): Yes
solubility at 4 h ([4]; pH 4.5 buffer, aqueous buffer, pH 4.5, 4 h): 0.07 µg/mL (≈ 0.152 µM)
solubility at 24 h ([4]; pH 4.5 buffer, aqueous buffer, pH 4.5, 24 h): 0.08 µg/mL (≈ 0.174 µM)
Crystal form change ([4]; pH 6.8, 1 h): Yes
Crystal form change ([4]; pH 6.8, 4 h): Yes
Crystal form change ([4]; pH 6.8, 24 h): Yes
solubility at 24 h ([4]; pH 6.8 buffer, aqueous buffer, pH 6.8, 24 h): 0.06 µg/mL (≈ 0.131 µM)
solubility at 1 h ([4]; water, H2O, 1 h): 0.13 µg/mL (≈ 0.283 µM)
solubility at 4 h ([4]; water, H2O, 4 h): 0.09 µg/mL (≈ 0.196 µM)
SMILES: Cn1cc2cc(-c3nn4ccc(C5CC5)nc4c(-c4ccc(OC(F)F)cc4)c3=O)ccc2n1 [Crystal form G, 2-cyclopropyl-9-[4-(difluoromethoxy)phenyl]-7-(2-methyl-2H-indazol-5-yl)-8H-pyrimido[1,2-b]pyridazin-8-one]
